Structures can show the parent of a compound that is named as a salt.
Legend:
[1] = molecular target: T1, RORC2-LBD (Homo sapiens, UniProt P51449); experiment: In vitro test for inhibitory activity on RORγ: TR-FRET screening (RORC2-LBD / SRC1 peptide interaction); type: biochemical; conditions: Value of the concentration required for 50% inhibition (EC50) of RORγ, 15 nM RORc-LBD, 200 nM SRC1 peptide, 4° C. overnight
T1 sequence (P51449 269-508 limits assumed): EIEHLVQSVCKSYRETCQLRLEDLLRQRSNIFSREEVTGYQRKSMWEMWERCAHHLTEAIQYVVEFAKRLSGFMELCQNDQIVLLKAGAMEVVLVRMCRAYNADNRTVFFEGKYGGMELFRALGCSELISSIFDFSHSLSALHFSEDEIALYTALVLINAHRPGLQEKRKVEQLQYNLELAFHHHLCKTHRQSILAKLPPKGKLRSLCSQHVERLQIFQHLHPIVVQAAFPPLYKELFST
Source text: The compounds of the present application was able to regulate (inhibit) the bioactivity of the nuclear receptor RORγ, and the strength of this regulatory (inhibitory) effect could be evaluated by a TR-FRET (time-resolved fluorescence resonance energy transfer) screening system. Nuclear receptor cofactors (co-activators and co-inhibitors) could regulate the transcription of a target gene by the interaction with nuclear receptors. If a ligand (test compound) affected the interaction between the nuclear receptors and the cofactors, this ligand (test compound) was able to regulate the transcription of the corresponding gene.
This method adopted the TR-FRET (time-resolved fluorescence resonance energy transfer) technique to determine the ability of a compound to regulate the interaction between the polypeptide indirectly bound to APC […] (namely, APC was indirectly bound to the polypeptide by binding to Streptavidin and biotin) and RORC2-LBD linked to a europium (Eu)-labeled anti-His antibody (Perkin Elmer #AD0111). In the absence of the compound, RORC2 could bind to an APC-modified polypeptide. If the compound was an agonist, it could enhance the interaction between RORC2 and the APC-modified polypeptide after binding to RORC2. On the contrary, if the compound was an inverse agonist, it could inhibit the interaction between RORC2 and the APC-modified polypeptide after binding to RORC2. When the APC-modified polypeptide and the Eu-labeled anti-His antibody-RORC2-LBD complex approached to each other and the distance therebetween was within a certain distance, energy transfer could occur and a TR-FRET signal was generated.
A buffer solution comprising 50 mM Tris (pH 7.0), 50 mM KCl, 1 mM Na-EDTA, 0.01% BSA (0.1 mg/ml), and 0.1 mM DTT was freshly formulated prior to the experiment.
2.3 Formulation of a RORγ-containing working solution. Prior to the test, a working solution containing 1.67 nM Eu/anti-His and 0.75 μl/well of SF9 cell lysate was freshly formulated, and was placed on ice before use. 25.05 nM of RORγ was added to the working solution.
2.5 Ten concentration gradients were set for each test compound, and duplicate wells were set for each concentration. The formulating method of the test compounds was as follows: […]
2) 15 μl of the RORγ-containing working solution was added to columns 1 to 21 of the tested 384-well plate (the final concentration of Eu/anti-His was 1 nM, and the final concentration of RORg was 15 nM); and […]
9) data analysis was performed using the ratio of the numerical value detected at an emission wavelength of 665 nm to the numerical value detected at an emission wavelength of 615 nm. […]

[2] = molecular target: T2, RORγ (Homo sapiens, UniProt P51449); experiment: In vitro test for inhibitory activity on RORγ: luciferase reporter cells expressing chimeric Gal4-RORγ receptor; type: cell-based; conditions: Gal4 hybrid receptor luciferase reporter, HEK293, 24 hours incubation
T2 sequence (P51449 97-518): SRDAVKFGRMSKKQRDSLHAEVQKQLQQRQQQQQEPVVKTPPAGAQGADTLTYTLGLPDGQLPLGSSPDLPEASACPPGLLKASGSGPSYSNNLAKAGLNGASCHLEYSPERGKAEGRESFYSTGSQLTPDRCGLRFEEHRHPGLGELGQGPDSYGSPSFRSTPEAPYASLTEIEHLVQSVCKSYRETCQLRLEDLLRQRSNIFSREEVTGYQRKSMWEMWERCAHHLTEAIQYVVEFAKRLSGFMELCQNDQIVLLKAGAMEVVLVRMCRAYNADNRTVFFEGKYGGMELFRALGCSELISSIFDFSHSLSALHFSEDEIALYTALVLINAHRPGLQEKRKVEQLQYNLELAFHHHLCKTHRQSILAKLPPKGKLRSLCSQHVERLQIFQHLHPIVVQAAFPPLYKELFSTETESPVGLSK
Method: Reporter cells: Reporter cells expressing a chimeric RORγ receptor were used in this experiment. The chimeric RORγ receptor was a RORγ receptor formed by replacing the N-terminal DNA-binding domain of the natural RORγ protein with the DNA-binding domain of the yeast Gal4 protein. The luciferase reporter gene was located at the downstream of the Gal4 activating sequence (UAS).
Step 1: Reporter cells were prepared into a cell suspension using INDIGO's Cell Recovery Medium (CRM, containing 5% fetal bovine serum treated by activated carbon). The cell suspension was dispensed into a white 96-well culture plate in a volume of 100 μl/well.
Step 2: Eight concentration gradients were set for each test compound, and the test was conducted twice at each concentration. Prior to the experiment, the main stock solution of the test compound was serially diluted with DMSO, so as to formulate solutions with “1000×-concentration” relative to each of the final test concentrations. Subsequently, the compound was further diluted with the cell recovery medium (CRM, containing 5% fetal bovine serum treated by activated carbon), so as to formulate test working solutions with “2×-concentration”. As per a volume of 100 μl/well, the test working solutions were respectively added to the test wells in which the reporter cells were added in advance, so as to obtain the desired final test concentrations. The residual concentrations of DMSO in all test wells were 0.1%. The test plate was incubated in a cell incubator for 24 hours. Conditions of the incubator were set as follows: temperature: 37° C., 5% CO2, humidity: ˜85%.
Step 3: After 24 hours of incubation, the liquid in the culture plate was discarded, 100 μl of luciferase detection reagent was added to each test well, and then, the fluorescence intensity (Relative Luminescence Units, RLUs) in each well was read.
In this test, the reference compound ursolic acid was used as an internal standard of a positive compound to verify the inhibitory effect of the test compound on RORγ in reporter cells of a specific batch. The tests for the reference compound and the test compound were performed simultaneously, and the reference compound and the test compound were thus exposed to the same test reagent and environment. The reference compound group containing 0.1% DMSO as solvent was used as an internal standard of a positive compound, so as to determine the effect of the solvent DMSO on the test results and calculate the percentage reduction in RORγ activity.
The test data was managed and archived by Microsoft Excel, and mean±standard deviation (SD) of RLU, fold of reduction, inhibition rate, coefficient of variation (% CV) and Z factor were calculated. Coefficient of variation (% CV): 100×(SD/Ave. RLU); Fold of reduction for inverse agonist: [Ave. […]

[3] = test system: MOG35-55-induced experimental autoimmune encephalomyelitis (EAE); experiment: In vivo pharmacodynamic research on MOG35-55-induced experimental autoimmune encephalomyelitis (EAE) in mice; conditions: G3, 0.5 mg/kg p.o. qd
Method: The day of immunization was recorded as day 0, and the subsequent days were marked sequentially. Mice were anesthetized with isoflurane, and 100 μl of the emulsion was administered via subcutaneous injection at three sites (the middle part between shoulder and back, and two sides of the tail that were close to the groin), namely, 33 μl of the emulsion for each site. 0 hour and 48 hours after the injection of the emulsion, 200 ng (i.e. 200 μl) of the PTX solution was intraperitoneal injected. Mice in the normal group were not required to be immunized.
After the immunization on day 0, the immunized mice were randomly divided into 3 groups with 10 mice in each group according to the body weights except for the mice in the normal group, the details were shown in Table 1. FTY720 served as a positive drug, and a dose of […] was an effective dose commonly used in the EAE model.
The first group was normal mice without any treatment; vehicle was administered to the second group; FTY720 was administered to the third group at a dose of 0.5 mg/kg once a day; and the compound of Example 1 was administered to the fourth group at a dose of 75 mg/kg twice a day. The administration lasted for 25 days in total. The volume of intragastric administration was 10 ml/kg.
The day when animals were immunized was day 0. Animal body weights were recorded three times a week from day 0 to day 10, and the body weights and clinical scores of the animals were closely observed and recorded daily from day 11.
The experimental data was expressed as mean±standard error of mean (Mean±SEM).
The area under the curve of clinical scores over time (i.e. “AUC of clinical scores” or “area under the curve of clinical scores”) was calculated by analyzing the curve of clinical scores for each animal in each group, and the inhibition rates of the remaining groups (G1, G3, and G4) relative to G2 (solvent control group) were calculated by the mean AUC of clinical scores among groups.

[4] = test system: imiquimod-induced psoriasis; experiment: In vivo pharmacodynamic study in imiquimod (IMQ)-induced psoriasis model in mice; design: species or system C57BL/6 mice; key to Clinical scores (Mean ± SEM, n = 8): 0 = no disease, 1 mild, 2 moderate, 3 severe, 4 very severe; conditions: 5 mg/kg, ig
Method: 6- to 8-week old female C57BL/6 mice were selected, depilated on the backs, and sensitized two days later except for the sham operation group. On the day of sensitization, the mice were randomly divided into the following 6 groups (8 mice per group). Group I was a sham operation group; Group II was a vehicle control group and PBS was administered; Group III was a positive control group and 5 mg/kg methotrexate was administered; Groups IV, V and VI were ip treatment group, ig treatment group, and topical treatment group of the compound of Example 1, and 75 mg/kg of the compound of Example 1 was administered via intraperitoneal injection, intragastric administration, and dorsal application, respectively. Administration was started on the day of sensitization, once daily for Group III and twice daily for Groups IV to VI. On the day of sensitization, the mice in Groups II to VI were given 60 to 80 mg of imiquimod cream (5%) on the dorsal skin for 4 consecutive days. (Please refer to Bouchaud, G., et al., Epidermal IL-15Ralpha acts as an endogenous antagonist of psoriasiform inflammation in mouse and man. J. Exp. Med., 2013. 210(10): p. 2105-17.)
The mice were weighed daily from the day of sensitization, and the skin scales, induration, and erythema were observed and scored according to a four-grade scoring method: 0 point, no disease; 1 point, mild; 2 points, moderate; 3 points, severe; and 4 points, very severe. (Please refer to Qin, S., et al., Endogenous n-3 polyunsaturated fatty acids protect against imiquimod-induced psoriasis-like inflammation via the IL-17/IL-23 axis. Mol Med Rep, 2014. 9(6): p. 2097-104.)

Compound `CCS(=O)(=O)c1ccc(CNC(=O)c2cc3c(s2)C(C(C)C)N(CC2CCC(C(F)(F)F)CC2)C3=O)nc1` (single isomer, unassigned) [Example 3] has an EC50 [1] of 0.1 to 0.5 µM, an EC50 ([2]; Specific value of the concentration required for 50% inhibition (EC50) of RORγ) of 0.147 µM and an EC50 ([2]; Value of the concentration required for 50% Inhibition (EC50) of RORγ) of 0.1 to 0.5 µM.

For `CCS(=O)(=O)c1ccc(CNC(=O)c2cc3c(s2)C(C(C)C)N(CC2CCC(C(F)(F)F)CC2)C3=O)nc1` (single isomer, unassigned) [Example 4], the EC50 [1] was 1 to 5 µM.

In the case of `CCS(=O)(=O)c1ccc(CNC(=O)c2cc3c(s2)C(C(C)C)N(Cc2ccc(C(F)(F)F)cc2)C3)nc1` (stereo not shown) [Example 9], the EC50 [1] is reported as under 0.1 µM.

For `CCCCCCCCc1ccc(CCC(N)(CO)CO)cc1` [FTY720, fingolimod hydrochloride, reference compound], the “inhibition rate of AUC of clinical scores relative to solvent control group” value ([3]; 25 days, FIG. 2) was 100%, the “morbidity of EAE” value ([3]; from the beginning to end, FIG. 3) was 0 and the body weight changes ([3]; significantly different from solvent control group, FIG. 4) was “kept increasing”.

With `CN(Cc1cnc2nc(N)nc(N)c2n1)c1ccc(C(=O)N[C@@H](CCC(=O)O)C(=O)O)cc1` [Methotrexate, reference compound] the “Clinical scores (Mean ± SEM, n = 8)” value ([4]; Day 1) was 0 ± 0, the “Clinical scores (Mean ± SEM, n = 8)” value ([4]; Day 2) was 0.19 ± 0.13 and the “Clinical scores (Mean ± SEM, n = 8)” value ([4]; Day 3) was 0.50 ± 0.13. For the same compound, the “Clinical scores (Mean ± SEM, n = 8)” value ([4]; Day 4) was 0.88 ± 0.25 and the “Clinical scores (Mean ± SEM, n = 8)” value ([4]; Day 5) was 0.93 ± 0.23.
